Data published in doi:10.1101/2021.06.16.448769v1 (bioRxiv, 2021).
Bridge positions count the residues as written; N and C are the ends. Ends that are not written are not given here. Peptide text beside a SMILES is read from it. * marks the point of attachment. Palmitoyl = CCCCCCCCCCCCCCCC(=O)*

How the values were obtained:
[1] = tested on: C5 activation (C5b-6), alternative pathway; assay: Alternative pathway; type: biochemical
[2] = target: human C5 (Homo sapiens, UniProt P01031); assay: SPR multi-cycle kinetics, binding to human C5
human C5, sequence (P01031 19-673 limits assumed): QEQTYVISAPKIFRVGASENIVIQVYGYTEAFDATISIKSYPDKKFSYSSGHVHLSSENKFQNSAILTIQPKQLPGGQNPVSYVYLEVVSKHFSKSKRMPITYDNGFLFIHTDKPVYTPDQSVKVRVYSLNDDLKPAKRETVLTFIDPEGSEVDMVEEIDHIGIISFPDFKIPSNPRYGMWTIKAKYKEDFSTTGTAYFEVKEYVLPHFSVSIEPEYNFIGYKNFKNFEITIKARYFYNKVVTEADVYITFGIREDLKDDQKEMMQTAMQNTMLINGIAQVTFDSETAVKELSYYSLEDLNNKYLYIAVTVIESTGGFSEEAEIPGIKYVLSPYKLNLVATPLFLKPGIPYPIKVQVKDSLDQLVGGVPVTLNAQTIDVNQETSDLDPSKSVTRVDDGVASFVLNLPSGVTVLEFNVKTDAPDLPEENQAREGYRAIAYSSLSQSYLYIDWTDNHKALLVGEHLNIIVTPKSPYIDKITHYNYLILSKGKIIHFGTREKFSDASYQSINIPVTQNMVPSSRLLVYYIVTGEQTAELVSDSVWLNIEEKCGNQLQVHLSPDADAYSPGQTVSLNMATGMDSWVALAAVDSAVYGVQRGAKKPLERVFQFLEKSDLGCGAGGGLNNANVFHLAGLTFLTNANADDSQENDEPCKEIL
human C5, sequence (P01031 678-1676 limits assumed): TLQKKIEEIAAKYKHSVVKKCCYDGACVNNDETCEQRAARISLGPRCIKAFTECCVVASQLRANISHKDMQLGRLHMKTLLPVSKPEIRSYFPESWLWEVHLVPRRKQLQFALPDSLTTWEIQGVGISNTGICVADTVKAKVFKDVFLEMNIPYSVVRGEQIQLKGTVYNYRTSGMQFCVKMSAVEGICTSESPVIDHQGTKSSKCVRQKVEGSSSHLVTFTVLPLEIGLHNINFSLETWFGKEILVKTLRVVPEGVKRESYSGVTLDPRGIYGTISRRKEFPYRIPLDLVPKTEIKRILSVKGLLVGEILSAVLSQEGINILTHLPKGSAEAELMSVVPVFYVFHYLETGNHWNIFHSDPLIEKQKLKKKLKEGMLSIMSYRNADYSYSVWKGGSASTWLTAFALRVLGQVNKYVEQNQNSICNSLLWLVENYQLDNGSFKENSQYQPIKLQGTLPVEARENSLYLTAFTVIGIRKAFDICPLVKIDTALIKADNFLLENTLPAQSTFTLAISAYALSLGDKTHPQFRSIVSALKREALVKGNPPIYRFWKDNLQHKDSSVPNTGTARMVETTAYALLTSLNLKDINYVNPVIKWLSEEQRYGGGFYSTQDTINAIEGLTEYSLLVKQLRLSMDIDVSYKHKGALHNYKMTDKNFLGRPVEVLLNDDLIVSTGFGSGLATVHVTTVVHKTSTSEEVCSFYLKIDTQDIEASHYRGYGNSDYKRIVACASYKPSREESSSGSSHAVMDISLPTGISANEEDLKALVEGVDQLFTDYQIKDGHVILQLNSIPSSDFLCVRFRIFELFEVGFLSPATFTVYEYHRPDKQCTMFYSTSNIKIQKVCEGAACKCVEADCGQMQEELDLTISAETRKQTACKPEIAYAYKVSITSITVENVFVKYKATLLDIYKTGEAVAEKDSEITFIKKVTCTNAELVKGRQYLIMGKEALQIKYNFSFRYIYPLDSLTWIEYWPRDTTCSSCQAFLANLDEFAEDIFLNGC

[3] = tested on: C5 activation (C5b-6), classical pathway; assay: Classical pathway; type: biochemical
[4] = target: rat C5 protein (Rattus norvegicus, UniProt P08650); assay: SPR single-cycle kinetics, binding to rat C5
rat C5 protein, sequence (P08650 19-1681): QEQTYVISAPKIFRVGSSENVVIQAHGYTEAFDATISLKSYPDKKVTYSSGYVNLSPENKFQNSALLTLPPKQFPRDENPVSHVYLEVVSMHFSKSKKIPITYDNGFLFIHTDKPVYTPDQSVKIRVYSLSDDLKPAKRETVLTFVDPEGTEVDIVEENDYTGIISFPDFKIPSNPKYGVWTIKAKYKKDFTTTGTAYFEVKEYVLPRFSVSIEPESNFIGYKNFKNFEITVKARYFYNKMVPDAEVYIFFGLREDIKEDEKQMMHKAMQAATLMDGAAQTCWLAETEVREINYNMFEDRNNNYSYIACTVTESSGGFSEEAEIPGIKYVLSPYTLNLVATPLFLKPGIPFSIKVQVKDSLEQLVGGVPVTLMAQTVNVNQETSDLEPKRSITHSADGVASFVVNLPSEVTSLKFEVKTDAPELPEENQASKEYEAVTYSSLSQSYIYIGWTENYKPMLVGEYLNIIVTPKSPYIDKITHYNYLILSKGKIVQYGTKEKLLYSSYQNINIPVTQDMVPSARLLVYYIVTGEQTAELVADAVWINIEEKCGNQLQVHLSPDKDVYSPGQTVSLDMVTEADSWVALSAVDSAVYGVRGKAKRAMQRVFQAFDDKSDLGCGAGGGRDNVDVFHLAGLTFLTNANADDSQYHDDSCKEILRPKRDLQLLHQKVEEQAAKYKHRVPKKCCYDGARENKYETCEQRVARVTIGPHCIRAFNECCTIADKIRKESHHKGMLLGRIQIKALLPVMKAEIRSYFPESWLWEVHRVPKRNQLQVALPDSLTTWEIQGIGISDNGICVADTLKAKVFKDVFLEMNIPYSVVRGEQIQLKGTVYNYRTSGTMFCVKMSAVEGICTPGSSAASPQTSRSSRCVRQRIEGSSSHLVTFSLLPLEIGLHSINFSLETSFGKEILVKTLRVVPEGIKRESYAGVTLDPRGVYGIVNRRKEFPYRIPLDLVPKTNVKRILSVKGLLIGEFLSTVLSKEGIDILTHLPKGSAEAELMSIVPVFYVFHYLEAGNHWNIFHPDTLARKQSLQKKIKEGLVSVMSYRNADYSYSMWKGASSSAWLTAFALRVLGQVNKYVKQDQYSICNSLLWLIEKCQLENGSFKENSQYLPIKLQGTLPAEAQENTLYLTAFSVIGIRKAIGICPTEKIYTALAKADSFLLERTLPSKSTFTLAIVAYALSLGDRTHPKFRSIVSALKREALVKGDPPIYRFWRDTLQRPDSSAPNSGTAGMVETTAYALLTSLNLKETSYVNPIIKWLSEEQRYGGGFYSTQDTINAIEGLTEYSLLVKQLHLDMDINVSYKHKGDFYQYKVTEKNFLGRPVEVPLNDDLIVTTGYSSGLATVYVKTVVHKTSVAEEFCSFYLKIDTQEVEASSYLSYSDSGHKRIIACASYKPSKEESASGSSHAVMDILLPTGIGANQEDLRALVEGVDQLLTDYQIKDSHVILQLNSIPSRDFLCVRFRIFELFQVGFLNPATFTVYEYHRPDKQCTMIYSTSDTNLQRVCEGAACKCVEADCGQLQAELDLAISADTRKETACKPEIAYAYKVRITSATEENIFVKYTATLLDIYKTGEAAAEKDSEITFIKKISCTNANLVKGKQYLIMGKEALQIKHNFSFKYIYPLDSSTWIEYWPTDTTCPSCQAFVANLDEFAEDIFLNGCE

[5] = Plasma stability, human plasma; type: in vitro ADME; conditions: plasma (lithium heparin)
[6] = Plasma stability, rat plasma; type: in vitro ADME; conditions: plasma (lithium heparin)
[7] = Plasma pharmacokinetics after intravenous bolus; type: in vivo, Sprague Dawley rats; conditions: male, Sprague-Dawley, rat
[8] = Plasma stability, mouse plasma; type: in vitro ADME; conditions: plasma (lithium heparin)
[9] = Solubility; type: physicochemical; conditions: reason for lower in vivo dose of 1 mg/kg

CC[C@H](C)[C@@H]1NC(=O)[C@H](C)NC(=O)[C@H](C(C)C)NC(=O)CNC(=O)[C@@H]2CSSC[C@@H](C(=O)NCC(=O)N[C@@H](Cc3c[nH]cn3)C(=O)N[C@@H](Cc3ccccc3)C(=O)N[C@@H](CC(C)C)C(=O)N[C@@H](CC(N)=O)C(=O)N[C@@H](CO)C(=O)NCC(=O)N3CCC[C@H]3C(=O)N[C@@H](CC(N)=O)C(=O)N[C@H](C(=O)N[C@@H](CO)C(=O)N3CCC[C@H]3C(=O)N[C@@H](Cc3ccc(O)cc3)C(=O)N[C@H](C(=O)N[C@@H](CO)C(=O)N[C@H](C(=O)O)[C@@H](C)O)C(C)C)[C@@H](C)CC)NC(=O)CNC(=O)[C@H](Cc3c[nH]c4ccccc34)NC(=O)[C@H](CCCNC(=N)N)NC(=O)CNC(=O)[C@H](CSSC[C@H](NC(=O)[C@@H](N)[C@@H](C)O)C(=O)N3CCC[C@H]3C(=O)N[C@@H](CCC(=O)O)C(=O)NCC(=O)N[C@@H](Cc3c[nH]c4ccccc34)C(=O)N[C@@H](CO)C(=O)N[C@@H](CCC(=O)O)C(=O)N2)NC(=O)[C@H](CCC(=O)O)NC(=O)[C@H](Cc2ccc(O)cc2)NC(=O)CNC(=O)[C@H](Cc2ccc(O)cc2)NC1=O [K92chemFE] (H-TCPEGWSECGVAIYGYECGRWGCGHFLNSGPNISPYVST-OH; disulfide 2-18, 9-23; N-terminus assumed)
Alternative pathway ELISA Emax ([1]; Figure 6 data, n=3 replicates): 27% | Kd ([2]; mean KD, SPR multi-cycle kinetics, mean of n=3): 0.41 nM | effect in CP ELISA (in words) [3]: no effect

CSCC[C@@H]1NC(=O)[C@@H]2CCCN2C(=O)[C@@H](NC(=O)[C@@H]2CSSC[C@H](NC(=O)[C@@H](N)CO)C(=O)N3CCC[C@H]3C(=O)N[C@@H](CC(=O)O)C(=O)NCC(=O)N[C@@H](Cc3ccccc3)C(=O)N[C@@H](CO)C(=O)N[C@@H](Cc3ccc(O)cc3)C(=O)N[C@@H](CCCNC(=N)N)C(=O)N[C@@H](CO)C(=O)N[C@@H](Cc3c[nH]c4ccccc34)C(=O)N[C@@H](CC(=O)O)C(=O)N[C@@H](CC(=O)O)C(=O)N[C@@H](Cc3ccccc3)C(=O)N2)CSSC[C@@H](C(=O)N[C@@H](CC(C)C)C(=O)N[C@@H](C)C(=O)N2CCC[C@H]2C(=O)N[C@@H](CCCNC(=N)N)C(=O)N[C@@H](CC(N)=O)C(=O)O)NC(=O)[C@H](CCCNC(=N)N)NC(=O)CNC(=O)[C@H](C(C)C)NC1=O [K149chemFE] (H-SCPDGFSYRSWDDFCCPMVGRCLAPRN-OH; disulfide 2-15, 16-22 (inferred); N-terminus assumed)
effect in AP ELISA (in words) [1]: non-functional, silent binder of C5 | binding to C5 (in words) ([2]; peptide after reduction and capping of cysteines with iodoacetamide (IAM)): entirely abrogated binding | effect in CP ELISA (in words) [3]: non-functional, silent binder of C5

GCPPGYKSGVDCSPGSECKWGCYAVDGRRYGGYGADSGVGS-OH (disulfide 2-18, 12-22 (inferred)) [K57chemFE]
cross reactivity with rat C5 (in words) [4]: specific for human C5 | remaining at 24 h, 6.25 µg/mL [5]: 76% | remaining at 24 h, 6.25 µg/mL [6]: 56% | clearance ([7]; 10 mg/kg): 10.6 mL/min/kg | half-life ([7]; 10 mg/kg): 17 min | remaining at 24 h, 6.25 µg/mL [8]: 22%

Palmitoyl-GSSSGCPPGYKSGVDCSPGSECKWGCYAVDGRRYGGYGADSGVGS-OH (disulfide 6-22, 16-26 (inferred)) [K57chemFE-palmitoyl]
solubility (in words) [9]: poor solubility | clearance ([7]; 1 mg/kg): 0.8 mL/min/kg | half-life ([7]; 1 mg/kg): 96 min | fold reduction in affinity for C5 relative to parent ([2]; SPR, relative to unmodified parent peptide): four-fold reduction
